Experimental data as given in patent US8975417B2, “Pyrazolopyrrolidine derivatives and their use in the treatment of disease” (Novartis AG, priority 2013, dated 2015).

What was measured:
Settings in all cases: biochemical
His-Brd4(44-477) = His-Brd4(44-477) (Homo sapiens (Human), UniProt O60885); experiment: TR-FRET in-vitro binding assay for BRD4
Method: (§1) TR-FRET In-Vitro Binding Assays for BRD2, BRD3, and BRD4:
(§2) All assays were performed in 384-well microtiter plates. Each assay plate contained 8-point serial dilutions for 40 test compounds, plus 16 high- and 16 low controls. Liquid handling and incubation steps were done on an Innovadyne Nanodrop Express equipped with a robotic arm (Thermo CatX, Perkin Elmer/Caliper Twister II) and an incubator (Liconic STX40, Thermo Cytomat 2C450). The assay plates were prepared by addition of 50 nl per well of compound solution in 90% DMSO HummingBird nanodispenser (Zinsser Analytic). The assay was started by stepwise addition of 4.5 μL per well of bromo domain protein (50 mM HEPES, pH 7.5, 0.005% Tween20, 0.1% BSA, 50 mM NaCl, 45 nM His-Brd2(60-472) or 45 nM His-Brd3(20-477) or 45 nM His-Brd4(44-477) all proteins produced in-house) and 4.5 μL per well of peptide solution (50 mM HEPES, pH 7.5, 0.005% Tween20, 0.1% BSA, 50 mM NaCl, 60 nM acetyl-histone H4 (AcK 5, 8, 12, 16) (Biosyntan GmbH)). Reactions were incubated at 30° C. for 35 minutes. Subsequently 4.5 μL per well detection mix (50 mM HEPES, pH 7.5, 0.005% Tween20, 0.1% BSA, 50 mM NaCl, 3 nM Eu-labeled anti-His6 antibody, 21 nM streptavidin-allophycocyanin) were added. After minutes incubation at 30° C., plates were measured in a Perkin Elmer EnVision multilabel reader.
(§3) Test compounds were dissolved in DMSO (10 mM) and transferred into 1.4 mL flat bottom or V-shaped Matrix tubes carrying a unique 2D matrix. The stock solutions were stored at […] if not used immediately. For the test procedure the vials were defrosted and identified by a scanner whereby a working sheet was generated that guided the subsequent working steps. Compound dilutions were made in 96 well plates. This format enabled the assay of maximally […] at 8 concentrations (single points) including 4 reference compounds, if desired (known BET inhibitors from the prior art, for this and other assays of the type disclosed herein). The dilution protocol included the production of “pre-dilution plates”, “master plates” and “assay plates”.
(§4) Polypropylene 96-well plates were used as pre-dilution plates. […] All dilution steps were done on a HamiltonSTAR robot.
(§5) 30 μL of individual compound dilutions including standard compound and controls of the 4 “pre-dilution plates” were transferred into a 384-well “master plate” including the following concentrations 10000, […], 1000, 300, 100, 30, 10 and 3 μM, respectively in 90% of DMSO.
(§6) Identical “assay plates” were then prepared by pipetting 50 nL each of compound dilutions of the “master plates” into 384-well “assay plates” by means of a HummingBird 384-channel dispenser. These plates were used directly for the assay which was performed in a total volume of 13.55 μL.

His-Brd3(20-477) = His-Brd3(20-477) (Homo sapiens (Human), UniProt Q15059); experiment: TR-FRET in-vitro binding assay for BRD3
Method: as §1, §2, §3, §4, §5, §6

His-Brd2(60-472) = His-Brd2(60-472) (Homo sapiens (Human), UniProt P25440); experiment: TR-FRET in-vitro binding assay for BRD2
Method: as §1, §2, §3, §4, §5, §6

[1] = target: His-CREBBP (1081-1197) bromodomain (Homo sapiens (Human), UniProt Q92793); experiment: AlphaScreen in-vitro binding assay for CREBBP
Method: AlphaScreen In-Vitro Binding Assay for CREBBP
In order to assess bromodomain selectivity, we set up a binding assay using the bromodomain encoded by the CREBBP gene. […] Reactions were incubated at 30° C. for 35 minutes. Subsequently 4.5 μL per well detection mix (50 mM HEPES, pH 7.5, 0.005% Tween20, 0.02% BSA, 150 mM NaCl, 45 μg/ml Ni-chelate acceptor beads, 45 μg/mL streptavidin-donor beads) (Perkin Elmer)) were added. After 60 minutes incubation at room temperature, plates were measured in a Perkin Elmer EnVision multilabel reader. IC50 values were determined from percent inhibition values at different compound concentrations by non-linear regression analysis.
as §3, §4
These plates were used directly for the assay which was performed in a total volume of 13.55 μL.

Sequence of His-Brd3(20-477) (Q15059 20-477): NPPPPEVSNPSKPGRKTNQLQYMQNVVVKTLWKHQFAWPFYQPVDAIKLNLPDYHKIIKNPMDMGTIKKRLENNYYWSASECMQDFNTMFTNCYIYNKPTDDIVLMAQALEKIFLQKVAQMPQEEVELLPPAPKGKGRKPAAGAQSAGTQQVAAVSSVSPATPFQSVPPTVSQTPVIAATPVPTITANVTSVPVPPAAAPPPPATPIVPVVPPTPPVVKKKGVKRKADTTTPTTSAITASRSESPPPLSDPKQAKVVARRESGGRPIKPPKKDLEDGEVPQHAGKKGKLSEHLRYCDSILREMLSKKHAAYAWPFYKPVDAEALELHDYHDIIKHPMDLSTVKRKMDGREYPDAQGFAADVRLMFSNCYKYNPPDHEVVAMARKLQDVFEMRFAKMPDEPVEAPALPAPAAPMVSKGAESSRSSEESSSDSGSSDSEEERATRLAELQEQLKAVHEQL
Sequence of His-Brd2(60-472) (P25440 60-472): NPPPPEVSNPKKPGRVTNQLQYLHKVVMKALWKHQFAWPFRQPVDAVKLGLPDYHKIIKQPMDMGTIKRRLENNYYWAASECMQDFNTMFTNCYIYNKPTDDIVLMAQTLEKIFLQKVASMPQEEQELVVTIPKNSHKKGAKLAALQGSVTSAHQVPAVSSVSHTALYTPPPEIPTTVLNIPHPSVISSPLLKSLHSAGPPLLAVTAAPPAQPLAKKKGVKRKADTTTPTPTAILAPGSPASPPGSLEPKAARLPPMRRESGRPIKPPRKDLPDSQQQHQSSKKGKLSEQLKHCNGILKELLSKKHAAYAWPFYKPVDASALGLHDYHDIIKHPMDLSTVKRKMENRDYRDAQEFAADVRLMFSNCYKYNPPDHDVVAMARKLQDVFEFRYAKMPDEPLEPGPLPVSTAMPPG
Sequence of His-CREBBP (1081-1197) bromodomain (Q92793 1081-1197): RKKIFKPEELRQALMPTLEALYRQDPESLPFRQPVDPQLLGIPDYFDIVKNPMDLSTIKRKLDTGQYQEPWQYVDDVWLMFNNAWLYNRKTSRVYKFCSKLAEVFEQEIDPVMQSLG

SMILES	IC50 (His-Brd4(44-477)) [nM]	IC50 (His-Brd3(20-477)) [nM]	IC50 (His-Brd2(60-472)) [nM]	IC50 [1] [nM]
Cc1c2c(nn1C)C(=O)N(c1ccc(=O)n(C)c1)C2c1ccc(Cl)cc1 (stereo not shown) [Example 3, 4-(4-chlorophenyl)-2,3-dimethyl-5-(1-methyl-6-oxo-1,6-dihydropyridin-3-yl)-4,5-dihydropyrrolo[3,4-c]pyrazol-6(2H)-one]	400	520	580	
Cc1nn(C)c2c1C(c1ccc(Cl)cc1)N(c1ccc(=O)n(C)c1)C2=O (stereo not shown) [Example 4, 4-(4-chlorophenyl)-1,3-dimethyl-5-(1-methyl-6-oxo-1,6-dihydropyridin-3-yl)-4,5-dihydropyrrolo[3,4-c]pyrazol-6(1H)-one]	230			
Cc1c2c(nn1C)C(=O)N(c1cc(Cl)c(=O)n(C)c1)[C@H]2c1ccc(Cl)cc1 [Example 8, (S)-5-(5-chloro-1-methyl-6-oxo-1,6-dihydropyridin-3-yl)-4-(4-chlorophenyl)-2,3-dimethyl-4,5-dihydropyrrolo[3,4-c]pyrazol-6(2H)-one]	31000	27000	36000	
Cn1cc(N2C(=O)c3n[nH]cc3C2c2ccc(Cl)cc2)cc(Cl)c1=O (stereo not shown) [Example 9, 5-(5-chloro-1-methyl-6-oxo-1,6-dihydropyridin-3-yl)-4-(4-chlorophenyl)-4,5-dihydropyrrolo[3,4-c]pyrazol-6(2H)-one]	170	180	210	
Cn1cc2c(n1)C(=O)N(c1cc(Cl)c(=O)n(C)c1)[C@H]2c1ccc(Cl)cc1 [Example 12, (S)-5-(5-chloro-1-methyl-6-oxo-1,6-dihydropyridin-3-yl)-4-(4-chlorophenyl)-2-methyl-4,5-dihydropyrrolo[3,4-c]pyrazol-6(2H)-one]	> 37000	> 37000	> 37000	
Cn1cc2c(n1)C(=O)N(c1cc(F)c(=O)n(C)c1)C2c1ccc(Cl)cc1 (stereo not shown) [Example 14, 4-(4-chlorophenyl)-5-(5-fluoro-1-methyl-6-oxo-1,6-dihydropyridin-3-yl)-2-methyl-4,5-dihydropyrrolo[3,4-c]pyrazol-6(2H)-one]	460			
Cc1cc(N2C(=O)c3nn(C)cc3[C@@H]2c2ccc(Cl)cc2)cn(C)c1=O [Example 15, (S)-4-(4-chlorophenyl)-5-(1,5-dimethyl-6-oxo-1,6-dihydropyridin-3-yl)-2-methyl-4,5-dihydropyrrolo[3,4-c]pyrazol-6(2H)-one]		> 6700		
Cc1cc(N2C(=O)c3nn(C4CC4)c(C)c3[C@@H]2c2ccc(Cl)cc2)cn(C)c1=O [Example 22, (S)-4-(4-chlorophenyl)-2-cyclopropyl-5-(1,5-dimethyl-6-oxo-1,6-dihydropyridin-3-yl)-3-methyl-4,5-dihydropyrrolo[3,4-c]pyrazol-6(2H)-one]			> 6700	
Cc1c2c(nn1C)C(=O)N(c1ccc3nnc(C)n3c1)C2c1ccc(Cl)cc1 (stereo not shown) [Example 25, 4-(4-chlorophenyl)-2,3-dimethyl-5-(3-methyl-[1,2,4]triazolo[4,3-a]pyridin-6-yl)-4,5-dihydropyrrolo[3,4-c]pyrazol-6(2H)-one]	260	250	270	
Cc1cc(N2C(=O)c3nn(C)c(C)c3[C@@H]2c2ccc(Cl)cc2)cn(C)c1=O [Example 29, (S)-4-(4-chlorophenyl)-5-(1,5-dimethyl-6-oxo-1,6-dihydropyridin-3-yl)-2,3-dimethyl-4,5-dihydropyrrolo[3,4-c]pyrazol-6(2H)-one]	31000	25000	28000	
Cc1c2c(nn1C)C(=O)N(c1cc(F)c(=O)n(C)c1)C2c1ccc(Cl)cc1 (stereo not shown) [Example 31, 4-(4-chlorophenyl)-5-(5-fluoro-1-methyl-6-oxo-1,6-dihydropyridin-3-yl)-2,3-dimethyl-4,5-dihydropyrrolo[3,4-c]pyrazol-6(2H)-one]	520	470	690	
Cc1c2c(nn1C)C(=O)N(c1ccc(=O)n(C)n1)C2c1ccc(Cl)cc1 (stereo not shown) [Example 32, 4-(4-chlorophenyl)-2,3-dimethyl-5-(1-methyl-6-oxo-1,6-dihydropyridazin-3-yl)-4,5-dihydropyrrolo[3,4-c]pyrazol-6(2H)-one]	660	890	1200	
Cc1nn(C2CC2)c2c1[C@H](c1ccc(Cl)cc1)N(c1cc(Cl)c(=O)n(C)c1)C2=O [Example 50, (S)-5-(5-chloro-1-methyl-6-oxo-1,6-dihydropyridin-3-yl)-4-(4-chlorophenyl)-1-cyclopropyl-3-methyl-4,5-dihydropyrrolo[3,4-c]pyrazol-6(1H)-one]			> 6700	> 5100

More lines, in order of falling IC50 (His-Brd4(44-477)), values ahead:

IC50 (His-Brd4(44-477)) [nM]	IC50 (His-Brd3(20-477)) [nM]	IC50 (His-Brd2(60-472)) [nM]	IC50 [1] [nM]	SMILES
170				Cc1[nH]nc2c1C(c1ccc(Cl)cc1)N(c1ccc(=O)n(C)c1)C2=O (stereo not shown) [Example 2, 4-(4-chlorophenyl)-3-methyl-5-(1-methyl-6-oxo-1,6-dihydropyridin-3-yl)-4,5-dihydropyrrolo[3,4-c]pyrazol-6(2H)-one]
150	130	150		Cn1cc2c(n1)C(=O)N(c1cc(Cl)c(=O)n(C)c1)C2c1ccc(Cl)cc1 (stereo not shown) [Example 10, 5-(5-chloro-1-methyl-6-oxo-1,6-dihydropyridin-3-yl)-4-(4-chlorophenyl)-2-methyl-4,5-dihydropyrrolo[3,4-c]pyrazol-6(2H)-one]
140				COc1ccc(Cn2nc3c(c2C)C(c2ccc(Cl)cc2)N(c2ccc(=O)n(C)c2)C3=O)cc1 (stereo not shown) [Example 1, 4-(4-chlorophenyl)-2-(4-methoxybenzyl)-3-methyl-5-(1-methyl-6-oxo-1,6-dihydropyridin-3-yl)-4,5-dihydropyrrolo[3,4-c]pyrazol-6(2H)-one]
130	100	140		Cn1cc2c(n1)C(=O)N(c1cc(Cl)c(=O)n(C)c1)[C@@H]2c1ccc(Cl)cc1 [Example 11, (R)-5-(5-chloro-1-methyl-6-oxo-1,6-dihydropyridin-3-yl)-4-(4-chlorophenyl)-2-methyl-4,5-dihydropyrrolo[3,4-c]pyrazol-6(2H)-one]
130	150	180		Cc1cc(N2C(=O)c3nn(C)cc3C2c2ccc(Cl)cc2)cn(C)c1=O (stereo not shown) [Example 13, 4-(4-chlorophenyl)-5-(1,5-dimethyl-6-oxo-1,6-dihydropyridin-3-yl)-2-methyl-4,5-dihydropyrrolo[3,4-c]pyrazol-6(2H)-one]
120	91	78		Cc1cc(N2C(=O)c3nn(C4CC4)cc3C2c2ccc(Cl)cc2)cn(C)c1=O (stereo not shown) [Example 39, 4-(4-chlorophenyl)-2-cyclopropyl-5-(1,5-dimethyl-6-oxo-1,6-dihydropyridin-3-yl)-4,5-dihydropyrrolo[3,4-c]pyrazol-6(2H)-one]
66				Cc1nn(C2CC2)c2c1C(c1ccc(Cl)cc1)N(c1cc(C)c(=O)n(C)c1)C2=O (racemic) [Example 23, 4-(4-chlorophenyl)-1-cyclopropyl-5-(1,5-dimethyl-6-oxo-1,6-dihydropyridin-3-yl)-3-methyl-4,5-dihydropyrrolo[3,4-c]pyrazol-6(1H)-one]
31				Cc1cc(N2C(=O)c3nn(C)c(C)c3[C@H]2c2ccc(Cl)cc2)cn(C)c1=O [Example 30, (R)-4-(4-chlorophenyl)-5-(1,5-dimethyl-6-oxo-1,6-dihydropyridin-3-yl)-2,3-dimethyl-4,5-dihydropyrrolo[3,4-c]pyrazol-6(2H)-one]
